# From PubChem BioAssay (NCI)
# “And” between values parts separate entries of the source, which are not always exact repeats. Identical values can stand only once.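 Values below derive from 48-hour exposures of cells grown in 96-well plates, with endpoints linearly interpolated between the two concentrations bracketing the appropriate inhibition level. GI50: concentration for 50% inhibition of growth. TGI marks complete inhibition of growth.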
# Assays:
# Test in all cases: NCI-60 cell line screen, 48 h
# SN12C renal = tested on: SN12C renal
# MOLT-4 leukemia = tested on: MOLT-4 leukemia
# U251 CNS = tested on: U251 CNS
# UACC-62 melanoma = tested on: UACC-62 melanoma
# SF-539 CNS = tested on: SF-539 CNS
# MALME-3M melanoma = tested on: MALME-3M melanoma
# ACHN renal = tested on: ACHN renal
# HOP-62 NSCLC = tested on: HOP-62 NSCLC
# A498 renal = tested on: A498 renal
# SW-620 colon = tested on: SW-620 colon
# EKVX NSCLC = tested on: EKVX NSCLC
# HCT-116 colon = tested on: HCT-116 colon
# K-562 leukemia = tested on: K-562 leukemia
# OVCAR-5 ovarian = tested on: OVCAR-5 ovarian
# HL-60(TB) leukemia = tested on: HL-60(TB) leukemia
# SR leukemia = tested on: SR leukemia
# MDA-MB-468 breast = tested on: MDA-MB-468 breast
# NCI-H522 lung = tested on: NCI-H522 lung
# COLO 205 colon = tested on: COLO 205 colon
# CAKI-1 renal = tested on: CAKI-1 renal
# NCI-H460 lung = tested on: NCI-H460 lung
# UACC-257 melanoma = tested on: UACC-257 melanoma
# T-47D breast = tested on: T-47D breast
# OVCAR-4 ovarian = tested on: OVCAR-4 ovarian
# IGROV1 ovarian = tested on: IGROV1 ovarian
# NCI/ADR-RES ovarian = tested on: NCI/ADR-RES ovarian
# MDA-MB-435 = tested on: MDA-MB-435
# A549 NSCLC = tested on: A549 NSCLC
# 786-0 renal = tested on: 786-0 renal
# OVCAR-3 ovarian = tested on: OVCAR-3 ovarian
# DU-145 prostate = tested on: DU-145 prostate
# NCI-H226 lung = tested on: NCI-H226 lung
# MCF7 breast = tested on: MCF7 breast
# BT-549 breast = tested on: BT-549 breast
# LOX IMVI melanoma = tested on: LOX IMVI melanoma
# M14 melanoma = tested on: M14 melanoma
# RXF 393 renal = tested on: RXF 393 renal
# OVCAR-8 ovarian = tested on: OVCAR-8 ovarian
# RPMI-8226 leukemia = tested on: RPMI-8226 leukemia
# SK-MEL-5 melanoma = tested on: SK-MEL-5 melanoma
# SNB-19 CNS = tested on: SNB-19 CNS
# PC-3 prostate = tested on: PC-3 prostate
# HS 578T breast = tested on: HS 578T breast
# NCI-H23 lung = tested on: NCI-H23 lung
# SF-295 CNS = tested on: SF-295 CNS
# SK-OV-3 ovarian = tested on: SK-OV-3 ovarian
# SF-268 CNS = tested on: SF-268 CNS
# MDA-MB-231 breast = tested on: MDA-MB-231 breast
# TK-10 renal = tested on: TK-10 renal
# UO-31 renal = tested on: UO-31 renal
# HCT-15 colon = tested on: HCT-15 colon
# HOP-92 NSCLC = tested on: HOP-92 NSCLC
# HCC-2998 colon = tested on: HCC-2998 colon
# CCRF-CEM leukemia = tested on: CCRF-CEM leukemia
smiles,measurement,setting,value
CC(C)C[C@H](NC(=O)[C@@H]1CCCCCCCCCCC(=O)N[C@@H](CC(=O)N2CCC[C@@H]2C2CCCC2)C(=O)N1)B(O)O,GI50,SN12C renal,2.15 nM
same,TGI,SN12C renal,5.04 nM and 11.3 nM
same,GI50,MOLT-4 leukemia,3.4 nM
same,TGI,MOLT-4 leukemia,8480 nM
same,GI50,U251 CNS,3.92 nM
same,TGI,U251 CNS,17.8 nM and 72.9 nM
same,GI50,UACC-62 melanoma,1.77 nM
same,TGI,UACC-62 melanoma,3.56 nM
same,GI50,SF-539 CNS,1.8 nM
same,TGI,SF-539 CNS,3.47 nM
same,GI50,MALME-3M melanoma,1.64 nM
same,TGI,MALME-3M melanoma,3.71 nM and 23.8 nM
same,GI50,ACHN renal,58.5 nM and 25.9 nM
same,TGI,ACHN renal,5940 nM
same,GI50,HOP-62 NSCLC,5.68 nM
same,TGI,HOP-62 NSCLC,23 nM
same,GI50,A498 renal,21.6 nM and 34.4 nM
same,TGI,A498 renal,98.2 nM and 180 nM
same,GI50,SW-620 colon,4.09 nM
same,TGI,SW-620 colon,42 nM and 25.4 nM
same,GI50,EKVX NSCLC,9.25 nM and 21.7 nM
same,GI50,HCT-116 colon,2.6 nM
same,GI50,K-562 leukemia,4.56 nM
same,TGI,K-562 leukemia,> 100000 nM
same,GI50,OVCAR-5 ovarian,2.89 nM
same,TGI,OVCAR-5 ovarian,11.9 nM
same,GI50,HL-60(TB) leukemia,3.2 nM
same,TGI,HL-60(TB) leukemia,1940 nM
same,GI50,SR leukemia,3.81 nM
same,TGI,SR leukemia,> 100000 nM
same,GI50,MDA-MB-468 breast,2.02 nM
same,TGI,MDA-MB-468 breast,4.4 nM
same,GI50,NCI-H522 lung,2.21 nM
same,TGI,NCI-H522 lung,5.66 nM
same,GI50,COLO 205 colon,4.5 nM
same,TGI,COLO 205 colon,20.2 nM and 18 nM
same,GI50,CAKI-1 renal,108 nM and 52.6 nM
same,TGI,CAKI-1 renal,3350 nM
same,GI50,NCI-H460 lung,8.62 nM
same,TGI,NCI-H460 lung,43.6 nM and 40.5 nM
same,GI50,UACC-257 melanoma,3.76 nM
same,TGI,UACC-257 melanoma,289 nM and 1200 nM
same,GI50,T-47D breast,1.99 nM
same,TGI,T-47D breast,5.29 nM
same,GI50,OVCAR-4 ovarian,3.65 nM
same,TGI,OVCAR-4 ovarian,16.9 nM
same,GI50,IGROV1 ovarian,4.08 nM
same,GI50,NCI/ADR-RES ovarian,1970 nM
same,TGI,NCI/ADR-RES ovarian,5900 nM
same,GI50,MDA-MB-435,2.57 nM
same,TGI,MDA-MB-435,6.73 nM
same,GI50,A549 NSCLC,7.11 nM
same,TGI,A549 NSCLC,4570 nM
same,GI50,786-0 renal,24.9 nM and 21.8 nM
same,TGI,786-0 renal,173 nM and 168 nM
same,GI50,OVCAR-3 ovarian,4.07 nM
same,TGI,OVCAR-3 ovarian,16.8 nM
same,GI50,DU-145 prostate,8.46 nM
same,TGI,DU-145 prostate,37000 nM
same,GI50,NCI-H226 lung,3.97 nM
same,TGI,NCI-H226 lung,17.2 nM
same,GI50,MCF7 breast,3.7 nM
same,GI50,BT-549 breast,1.4 nM
same,TGI,BT-549 breast,3.05 nM
same,GI50,LOX IMVI melanoma,1.75 nM
same,TGI,LOX IMVI melanoma,3.46 nM
same,GI50,M14 melanoma,5.5 nM
same,TGI,M14 melanoma,75.4 nM and 109 nM
same,GI50,RXF 393 renal,2.53 nM
same,TGI,RXF 393 renal,6.28 nM
same,GI50,OVCAR-8 ovarian,22.2 nM and 15.7 nM
same,TGI,OVCAR-8 ovarian,10200 nM
same,GI50,RPMI-8226 leukemia,3.72 nM
same,GI50,SK-MEL-5 melanoma,1.77 nM
same,TGI,SK-MEL-5 melanoma,4.27 nM
same,GI50,SNB-19 CNS,3.67 nM
same,GI50,PC-3 prostate,4.61 nM
same,TGI,PC-3 prostate,96.4 nM and 59.3 nM
same,GI50,HS 578T breast,4.22 nM
same,TGI,HS 578T breast,94 nM
same,GI50,NCI-H23 lung,2.15 nM
same,TGI,NCI-H23 lung,5.11 nM
same,GI50,SF-295 CNS,3.83 nM
same,TGI,SF-295 CNS,14.5 nM
same,GI50,SK-OV-3 ovarian,4.43 nM
same,TGI,SK-OV-3 ovarian,23.6 nM and 15.9 nM
same,GI50,SF-268 CNS,4.46 nM
same,TGI,SF-268 CNS,46.6 nM
same,GI50,MDA-MB-231 breast,1.87 nM
same,TGI,MDA-MB-231 breast,3.81 nM
same,GI50,TK-10 renal,41 nM and 37.3 nM
same,TGI,TK-10 renal,208 nM and 462 nM
same,GI50,UO-31 renal,171 nM and 317 nM
same,TGI,UO-31 renal,466 nM and 1800 nM
same,GI50,HCT-15 colon,119 nM and 224 nM
same,TGI,HCT-15 colon,356 nM and 2460 nM
same,GI50,HOP-92 NSCLC,2.23 nM
same,TGI,HOP-92 NSCLC,6.22 nM
same,GI50,HCC-2998 colon,1.83 nM
same,TGI,HCC-2998 colon,3.32 nM
same,GI50,CCRF-CEM leukemia,2.87 nM
